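Briefly, cells in 96-well plates were exposed to five compound concentrations for 48 h, and endpoints were estimated by linear interpolation. At the GI50, growth is halved. The concentration for full growth arrest is given as TGI.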 Bounds are passed on as bounds.

Some test systems named below: HOP-62 NSCLC; IGROV1 ovarian; NCI-H460 lung; OVCAR-5 ovarian; SF-268 CNS; SF-539 CNS; SK-MEL-28 melanoma; SNB-19 CNS; TK-10 renal; UACC-257 melanoma.
Common to all, as to experiment: NCI anticancer screen, dose series, 48 h

For the molecule `Cc1cc(N2CCC(N3CCCC3)CC2)nc(/N=C(\N)Nc2ccc(Cl)c(Cl)c2)n1`, the GI50 was 1.81 µM in the experiment with HOP-62 NSCLC; 2.14 µM in the experiment on IGROV1 ovarian; 1.89 µM in the experiment on NCI-H460 lung; 1.77 µM with OVCAR-5 ovarian; 2.34 µM with SF-268 CNS; 1.72 µM in the experiment on SF-539 CNS. Besides, the GI50 in the experiment with SK-MEL-28 melanoma was 1.91 µM; in the experiment on SNB-19 CNS it was 2.14 µM; in the experiment with TK-10 renal, 1.93 µM; in the experiment with UACC-257 melanoma, 1.92 µM. The TGI was 3.8 µM with HOP-62 NSCLC; 5.11 µM with IGROV1 ovarian; 3.67 µM in the experiment with NCI-H460 lung; 3.79 µM in the experiment on OVCAR-5 ovarian; 6.66 µM in the experiment with SF-268 CNS; 3.54 µM in the experiment with SF-539 CNS. Further, the TGI is 3.41 µM in the experiment on SK-MEL-28 melanoma, 5.63 µM in the experiment on SNB-19 CNS, 3.72 µM with TK-10 renal and 3.54 µM in the experiment with UACC-257 melanoma.
With `COc1cccc(/C=C2\N=C(c3ccccc3)OC2=O)c1`, the TGI with HOP-62 NSCLC, with IGROV1 ovarian, with NCI-H460 lung, in the experiment with OVCAR-5 ovarian, in the experiment on SF-268 CNS and with SF-539 CNS was greater than 100 µM throughout. Moreover, the TGI in the experiment with SK-MEL-28 melanoma, in the experiment with SNB-19 CNS, in the experiment with TK-10 renal and in the experiment with UACC-257 melanoma was greater than 100 µM in each case.
As for `Cc1ccc(C)c2c1C1CCCCC3(OCCCO3)C21O` (stereo not given), the TGI with HOP-62 NSCLC, with IGROV1 ovarian, in the experiment on NCI-H460 lung, with OVCAR-5 ovarian, with SF-268 CNS and with SF-539 CNS was greater than 100 µM in each case. Also, the TGI in the experiment with SK-MEL-28 melanoma, in the experiment with SNB-19 CNS, in the experiment on TK-10 renal and with UACC-257 melanoma was greater than 100 µM each time.
Regarding `[O]=[Sn]([CH]1CCCCC1)[CH]1CCCCC1`, the GI50 is 0.407 µM in the experiment with HOP-62 NSCLC; 0.274 µM in the experiment with IGROV1 ovarian; 0.389 µM in the experiment on NCI-H460 lung; 0.62 µM in the experiment on OVCAR-5 ovarian; 0.214 µM in the experiment with SF-268 CNS; 0.24 µM in the experiment on SF-539 CNS. The GI50 in the experiment on SK-MEL-28 melanoma is 0.279 µM; with SNB-19 CNS, 0.271 µM; in the experiment on TK-10 renal, 0.267 µM; in the experiment on UACC-257 melanoma, 0.133 µM. Further, the TGI in the experiment on HOP-62 NSCLC came to 1.54 µM; in the experiment with IGROV1 ovarian it was 0.915 µM; in the experiment on NCI-H460 lung it was 1.43 µM; in the experiment on OVCAR-5 ovarian, 1.71 µM; in the experiment with SF-268 CNS, 0.654 µM; in the experiment on SF-539 CNS, 0.71 µM. Also, the TGI in the experiment on SK-MEL-28 melanoma amounted to 1.14 µM; in the experiment with SNB-19 CNS, 0.95 µM; with TK-10 renal it was 1.14 µM; in the experiment with UACC-257 melanoma, 0.384 µM.
Turning to `CC[C@H](C)[C@H](NC(=O)C12C3C4C1C1C2C3C41NC)C(=O)N(C)[C@H](C[C@@H](OC(C)=O)c1nc(C(=O)N[C@@H](Cc2ccccc2)C[C@H](C)C(=O)OC)cs1)C(C)C` (stereo not given in full), the GI50 in the experiment on HOP-62 NSCLC was 1.18 µM; in the experiment with IGROV1 ovarian it was 0.88 µM; in the experiment with NCI-H460 lung it was 0.617 µM; with OVCAR-5 ovarian, greater than 7.57 µM; with SF-268 CNS, 1.3 µM; in the experiment with SF-539 CNS, 0.546 µM. Also, the GI50 in the experiment with SK-MEL-28 melanoma was 0.714 µM; in the experiment on SNB-19 CNS it was 0.701 µM; with TK-10 renal it was greater than 4 µM; with UACC-257 melanoma it was 0.655 µM. The TGI in the experiment with HOP-62 NSCLC was greater than 11.7 µM; in the experiment with IGROV1 ovarian, greater than 14.3 µM; in the experiment on NCI-H460 lung, greater than 14.3 µM; in the experiment on OVCAR-5 ovarian it was greater than 14.3 µM; in the experiment on SF-268 CNS, greater than 14.3 µM; with SF-539 CNS, greater than 6.08 µM. The TGI in the experiment with SK-MEL-28 melanoma, in the experiment on SNB-19 CNS, with TK-10 renal and with UACC-257 melanoma was greater than 14.3 µM in each case.
On to `O=P(CN1CCOCC1)(c1ccccc1)c1ccccc1`, for which the TGI in the experiment with HOP-62 NSCLC, in the experiment on IGROV1 ovarian, with NCI-H460 lung, in the experiment with OVCAR-5 ovarian, in the experiment with SF-268 CNS and with SF-539 CNS was greater than 100 µM in each case. Also, the TGI with SK-MEL-28 melanoma, with SNB-19 CNS, in the experiment on TK-10 renal and in the experiment with UACC-257 melanoma was greater than 100 µM each time.
For the molecule `C=C1OC2OC(C)C(NC(=O)OCC(Cl)(Cl)Cl)C(OC(C)=O)C2O1` (stereo not given), the TGI in the experiment on HOP-62 NSCLC, with IGROV1 ovarian, with NCI-H460 lung, in the experiment on OVCAR-5 ovarian, with SF-268 CNS and with SF-539 CNS was greater than 100 µM each time. The TGI in the experiment on SK-MEL-28 melanoma, in the experiment on SNB-19 CNS, with TK-10 renal and in the experiment on UACC-257 melanoma was greater than 100 µM each time.
Turning to `COc1cc(-c2nc(-c3ccccc3)c(-c3ccccc3)[nH]2)cc(OC)c1O`, the GI50 with HOP-62 NSCLC is 21.9 µM; with IGROV1 ovarian, 26.9 µM; in the experiment on NCI-H460 lung it was 17.3 µM; in the experiment with OVCAR-5 ovarian, 15.4 µM; in the experiment on SF-268 CNS it was 20.1 µM; in the experiment with SF-539 CNS it was 15.8 µM. The GI50 with SK-MEL-28 melanoma is 14.9 µM; with SNB-19 CNS, 20.8 µM; in the experiment on TK-10 renal, 25.1 µM; with UACC-257 melanoma, 21.7 µM. The TGI stood at 47.8 µM with HOP-62 NSCLC; 61.2 µM in the experiment on IGROV1 ovarian; 36.3 µM in the experiment with NCI-H460 lung; 31.7 µM in the experiment on OVCAR-5 ovarian; 44.1 µM in the experiment with SF-268 CNS; 30.8 µM in the experiment on SF-539 CNS. For the same molecule, the TGI in the experiment on SK-MEL-28 melanoma was found to be 31.1 µM; in the experiment on SNB-19 CNS, 52.9 µM; in the experiment with TK-10 renal, 50.5 µM; with UACC-257 melanoma, 44.8 µM.
For `CCOc1ccc(C2=NN(CC)C(=O)C(C3C(=O)N(c4ccccc4)N=C3C)C2)cc1` (stereo not given), the TGI in the experiment on HOP-62 NSCLC, in the experiment with IGROV1 ovarian, with NCI-H460 lung, in the experiment on OVCAR-5 ovarian, in the experiment with SF-268 CNS and with SF-539 CNS was greater than 100 µM in each case. Further, the TGI in the experiment with SK-MEL-28 melanoma, in the experiment with SNB-19 CNS, in the experiment with TK-10 renal and with UACC-257 melanoma was greater than 100 µM each time.
As to `COc1cc2c(oc(=O)c3c4occc4cc(OC)c23)c2cccc(O)c12`, the TGI in the experiment on HOP-62 NSCLC, with IGROV1 ovarian, in the experiment on NCI-H460 lung, in the experiment with OVCAR-5 ovarian, with SF-268 CNS and in the experiment on SF-539 CNS was greater than 100 µM in each case. Also, the TGI in the experiment with SK-MEL-28 melanoma, in the experiment on SNB-19 CNS, in the experiment on TK-10 renal and in the experiment on UACC-257 melanoma was greater than 100 µM each time.

These data come from PubChem BioAssay (NCI).
